Measured values: ChEMBL document CHEMBL1201862, “PubChem BioAssay data set” (2004)
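Growth conditions: 96-well plates. Treatment: test compound, 48 hours, 5 concentrations. Analysis: linear interpolation between bracketing concentrations; unreached endpoints set to highest concentration. Here, GI50 denotes the concentration required for 50% inhibition of growth.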 Calls of active or inactive are those of the source. Cut-off read from the data, not from the text of the source: active = GI50 up to about 1.1 µM and inactive = higher.

What was measured:
Test in all cases: growth of human tumour cells (NCI), 48 h
SF-295 = tested on: SF-295
MCF7 = tested on: MCF7
IGROV-1 = tested on: IGROV-1
SK-OV-3 = tested on: SK-OV-3
CAKI-1 = tested on: CAKI-1
ACHN = tested on: ACHN
SR = tested on: SR
SNB-75 = tested on: SNB-75
K562 = tested on: K562
LOX IMVI = tested on: LOX IMVI
RXF 393 = tested on: RXF 393
OVCAR-8 = tested on: OVCAR-8
SW-620 = tested on: SW-620
UACC-62 = tested on: UACC-62
T47D = tested on: T47D
BT-549 = tested on: BT-549
SK-MEL-5 = tested on: SK-MEL-5
CCRF-CEM = tested on: CCRF-CEM
HT-29 = tested on: HT-29

Measured: GI50

C=C1C(=O)O[C@H]2C[C@@H]1[C@@H](O)[C@H](O)[C@@H](C)CCCC(C)=CCC[C@@]2(C)O
inactive: SF-295 54.7 µM | MCF7 10.1 µM | IGROV-1 24.3 µM | SK-OV-3 62.5 µM | CAKI-1 5.06 µM | ACHN 14.6 µM | SR 39.7 µM | SNB-75 45.5 µM | K562 5.55 µM | LOX IMVI 18.5 µM | RXF 393 22.7 µM | OVCAR-8 > 10 µM | SW-620 > 10 µM | UACC-62 16.6 µM | T47D 20.2 µM | BT-549 10 µM | SK-MEL-5 14.3 µM | CCRF-CEM > 100 µM

Fc1cccc(C2SCc3nc4cc5ccccc5cc4n32)c1 (centres undefined)
inactive: SF-295 > 100 µM | MCF7 > 100 µM | IGROV-1 > 100 µM | SK-OV-3 > 100 µM | CAKI-1 68.9 µM | ACHN > 100 µM | SR > 100 µM | SNB-75 93.1 µM | K562 > 100 µM | HT-29 > 100 µM | LOX IMVI > 100 µM | RXF 393 > 100 µM | OVCAR-8 > 100 µM | SW-620 > 100 µM | UACC-62 > 100 µM | T47D > 100 µM | BT-549 > 100 µM | CCRF-CEM > 100 µM

C(=C/CCCN1O[C@@H](CCCCCCCCc2cccnc2)[C@H]2CCC[C@H]21)/CCCCCCCCCc1cccnc1
inactive: SF-295 20 µM | MCF7 15.7 µM | IGROV-1 30.5 µM | SK-OV-3 19 µM | CAKI-1 13.5 µM | SR 17.2 µM | SNB-75 27.1 µM | K562 11.1 µM | HT-29 21.9 µM | LOX IMVI 12.7 µM | RXF 393 17.1 µM | OVCAR-8 31.6 µM | SW-620 31.3 µM | UACC-62 20.9 µM | T47D 20.7 µM | BT-549 33 µM | SK-MEL-5 17.5 µM | CCRF-CEM 15.7 µM

Cc1c(C)c2ccc(O)cc2[nH]c1=O
inactive: SF-295 > 100 µM | MCF7 > 100 µM | IGROV-1 > 100 µM | CAKI-1 > 100 µM | ACHN > 100 µM | SR > 100 µM | SNB-75 98.9 µM | K562 > 100 µM | HT-29 > 100 µM | LOX IMVI > 100 µM | RXF 393 > 100 µM | OVCAR-8 > 100 µM | SW-620 > 100 µM | UACC-62 > 100 µM | T47D > 100 µM | BT-549 > 100 µM | SK-MEL-5 > 100 µM | CCRF-CEM > 100 µM

NC(=S)SC1=NC(=O)C2(NN1)c1ccccc1-c1ccccc12
inactive: SF-295 > 10 µM | MCF7 > 10 µM | IGROV-1 > 10 µM | SK-OV-3 > 10 µM | CAKI-1 > 10 µM | ACHN 5.36 µM | SR > 10 µM | SNB-75 > 10 µM | HT-29 > 10 µM | LOX IMVI > 10 µM | RXF 393 > 10 µM | OVCAR-8 > 10 µM | SW-620 > 10 µM | UACC-62 > 10 µM | T47D 1.67 µM | BT-549 > 10 µM | SK-MEL-5 6.12 µM | CCRF-CEM > 10 µM

C(=NCCN1CCOCC1)=NC1CCCCC1
inactive: SF-295 > 100 µM | MCF7 > 100 µM | IGROV-1 > 100 µM | SK-OV-3 > 100 µM | CAKI-1 > 100 µM | ACHN > 100 µM | SR 12.4 µM | SNB-75 > 100 µM | K562 > 100 µM | HT-29 > 100 µM | LOX IMVI > 100 µM | RXF 393 > 100 µM | OVCAR-8 > 100 µM | SW-620 > 100 µM | UACC-62 > 100 µM | T47D > 100 µM | BT-549 > 100 µM | SK-MEL-5 > 100 µM

O=C(O)CCC(N/N=N/c1ccc(-c2nc3ccccc3[nH]2)cc1)C(=O)O (centres undefined)
inactive: SF-295 21.6 µM | MCF7 23.1 µM | IGROV-1 20.8 µM | SK-OV-3 59.7 µM | CAKI-1 61.4 µM | ACHN 28.2 µM | SR 29.7 µM | SNB-75 59.2 µM | K562 30.1 µM | HT-29 58.1 µM | LOX IMVI 43.1 µM | RXF 393 40.9 µM | OVCAR-8 34.8 µM | SW-620 > 100 µM | T47D 30.7 µM | BT-549 23.9 µM | SK-MEL-5 66.5 µM | CCRF-CEM 15 µM

COc1cccc(C(C#N)NNC(=O)c2c(Cl)c(Cl)c(Cl)c(Cl)c2-c2nc3cc(C(=O)c4ccccc4)ccc3[nH]2)c1O (centres undefined)
inactive: SF-295 1.74 µM | MCF7 3.22 µM | IGROV-1 5.77 µM | SK-OV-3 3.03 µM | CAKI-1 6.25 µM | ACHN 6.44 µM | SR 2.91 µM | SNB-75 2 µM | K562 3.27 µM | HT-29 4.91 µM | LOX IMVI 5.19 µM | RXF 393 2.17 µM | OVCAR-8 11.3 µM | SW-620 6.01 µM | T47D 2.79 µM | BT-549 6.37 µM | SK-MEL-5 2.71 µM | CCRF-CEM 3.2 µM
